Assay results as given in the supplement of paper PMC11451515.

Experiments:
Conditions in all cases: 48 h
SEM cells [1] = assay: cell viability relative to DMSO control; higher = less cytotoxic
Procedure, shortened: (§1)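 Library compounds in DMSO were pin-dosed into 1536-well plates (5 μl) holding NOMO1 or SEM (500 cells/well) or P12-Ichikawa (1000 cells/well) leukemia cells, across an 11-point threefold series of 47 μM to 0.79 nM. Each cell line had been adapted for at least four passages in each medium. CellTiter-Glo One luminescence was read after 48 h at 37°C. Viability is the per-plate percentage relative to DMSO wells, with cell-free wells as background.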

NOMO1 [2] = assay: as above
Procedure, shortened: as §1

SEM cells [3] = assay: AUC of viability dose-response curve (% viability x log10 dose units); higher = less sensitive
Procedure, shortened: (§2)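 Leukemia cells adapted to each medium were seeded in 1536-well plates (500 or 1000 cells/well) and given library compounds in DMSO for 48 h at 37°C. The 11 threefold doses spanned 47 μM to 0.79 nM, and CellTiter-Glo One luminescence was normalised per plate to DMSO and cell-free wells before four-parameter log-logistic fitting on log10 dose. Area under the curve was integrated with the trapezoidal rule, scaling curves above full viability and removing curves that failed quality control.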

NOMO1 [4] = assay: as above
Procedure, shortened: as §2

P12-Ichikawa [5] = assay: cell viability relative to DMSO control; higher = less cytotoxic
Procedure, shortened: as §1

P12-Ichikawa [6] = assay: AUC of viability dose-response curve (% viability x log10 dose units); higher = less sensitive
Procedure, shortened: as §2

NC/1=N/C(=O)N(/C=C1F)[C@H]2CS[C@H](CO)O2
cell viability [%]
Conditions	HPLM + 10% dialyzed FBS	RPMI 5 mM glucose + 10% FBS	RPMI 5 mM glucose + 10% dialyzed FBS
NOMO1 [2], 0.000781 µM	–	108	–
NOMO1 [2], 0.00234 µM	–	121	–
NOMO1 [2], 0.00702 µM	–	121	–
NOMO1 [2], 0.0211 µM	–	127	–
NOMO1 [2], 0.0632 µM	–	133	–
NOMO1 [2], 0.19 µM	–	157	–
NOMO1 [2], 0.569 µM	–	141	–
NOMO1 [2], 1.71 µM	–	139	–
NOMO1 [2], 5.12 µM	–	131	–
NOMO1 [2], 15.4 µM	–	151	–
NOMO1 [2], 46.1 µM	–	141	–
SEM cells [1], 0.000781 µM	83.9	–	101
SEM cells [1], 0.00234 µM	107	–	118
SEM cells [1], 0.00702 µM	107	–	115
SEM cells [1], 0.0211 µM	115	–	152
SEM cells [1], 0.0632 µM	124	–	126
SEM cells [1], 0.19 µM	116	–	121
SEM cells [1], 0.569 µM	123	–	144
SEM cells [1], 1.71 µM	126	–	131
SEM cells [1], 5.12 µM	143	–	137
SEM cells [1], 15.4 µM	142	–	144
SEM cells [1], 46.1 µM	148	–	153

AUC of viability dose-response curve
Conditions	HPLM + 10% dialyzed FBS	RPMI 5 mM glucose + 10% FBS	RPMI 5 mM glucose + 10% dialyzed FBS
NOMO1 [4]	472	449	462
SEM cells [3]	392	442	418

O=C(Cc1ccc(-c2ccc(OCCN3CCOCC3)cc2)cn1)NCc1ccccc1
cell viability [%]
Conditions	NOMO1 [2]	P12-Ichikawa [5]	SEM cells [1]
HPLM + 10% dialyzed FBS, 0.000781 µM	118	107	96
HPLM + 10% dialyzed FBS, 0.00234 µM	102	113	95.9
HPLM + 10% dialyzed FBS, 0.00702 µM	123	114	106
HPLM + 10% dialyzed FBS, 0.0211 µM	111	85.6	67.9
HPLM + 10% dialyzed FBS, 0.0632 µM	43.7	36.1	28.9
HPLM + 10% dialyzed FBS, 0.19 µM	41.9	17.3	22.9
HPLM + 10% dialyzed FBS, 0.569 µM	43.8	14	21.6
HPLM + 10% dialyzed FBS, 1.71 µM	53.7	13.2	20.8
HPLM + 10% dialyzed FBS, 5.12 µM	52.5	10.3	18.9
HPLM + 10% dialyzed FBS, 15.4 µM	56.6	9.64	15.2
HPLM + 10% dialyzed FBS, 46.1 µM	40.6	11.6	10.5
RPMI 5 mM glucose + 10% FBS, 0.000781 µM	124	114	79.9
RPMI 5 mM glucose + 10% FBS, 0.00234 µM	122	114	84.5
RPMI 5 mM glucose + 10% FBS, 0.00702 µM	117	123	87
RPMI 5 mM glucose + 10% FBS, 0.0211 µM	128	97	57.9
RPMI 5 mM glucose + 10% FBS, 0.0632 µM	71.9	40	18.9
RPMI 5 mM glucose + 10% FBS, 0.19 µM	27.1	25.9	12.9
RPMI 5 mM glucose + 10% FBS, 0.569 µM	33.2	15.6	14.8
RPMI 5 mM glucose + 10% FBS, 1.71 µM	34.1	15.1	13.6
RPMI 5 mM glucose + 10% FBS, 5.12 µM	32.5	10.4	12.2
RPMI 5 mM glucose + 10% FBS, 15.4 µM	31.3	8.04	4.65
RPMI 5 mM glucose + 10% FBS, 46.1 µM	33.7	8.38	2.89
RPMI 5 mM glucose + 10% dialyzed FBS, 0.000781 µM	118	122	93.6
RPMI 5 mM glucose + 10% dialyzed FBS, 0.00234 µM	108	118	90.8
RPMI 5 mM glucose + 10% dialyzed FBS, 0.00702 µM	124	119	93.8
RPMI 5 mM glucose + 10% dialyzed FBS, 0.0211 µM	112	112	70.8
RPMI 5 mM glucose + 10% dialyzed FBS, 0.0632 µM	62.5	33.3	30.3
RPMI 5 mM glucose + 10% dialyzed FBS, 0.19 µM	35.8	35	19.1
RPMI 5 mM glucose + 10% dialyzed FBS, 0.569 µM	35.2	22.9	22.4
RPMI 5 mM glucose + 10% dialyzed FBS, 1.71 µM	41.7	22.2	20
RPMI 5 mM glucose + 10% dialyzed FBS, 5.12 µM	40.6	13.6	17.3
RPMI 5 mM glucose + 10% dialyzed FBS, 15.4 µM	33.4	11.6	9.97
RPMI 5 mM glucose + 10% dialyzed FBS, 46.1 µM	42.7	16.6	7.04

AUC of viability dose-response curve
Conditions	HPLM + 10% dialyzed FBS	RPMI 5 mM glucose + 10% FBS	RPMI 5 mM glucose + 10% dialyzed FBS
NOMO1 [4]	294	263	277
P12-Ichikawa [6]	200	205	222
